{"source": "paper PMC7830877", "about": "“Possibility to Biotransform Anthracyclines by Peroxidases Produced by Bjerkandera adusta CCBAS 930 with Reduction of Geno- and Cytotoxicity and Pro-Oxidative Activity” (Molecules, 2021)", "key": {"B. adusta CCBAS 930": {"system": "B. adusta CCBAS 930", "test": "Free radical (SOR) content in B. adusta CCBAS 930 cultures (NBT)", "set-up": "species or system Bjerkandera adusta", "procedure": "The content of PhC was determined spectrophotometrically at A740nm according to Singleton and Rossi (1965) with a slight modification. SOR levels were estimated based on the detection of superoxide-induced formazan formation from nitrotetrazolium blue (NBT) (A560nm). Untreated medium with DNR or DOX at a concentration of 10 µg/mL was used as control."}, "[1]": {"test": "DPPH radical scavenging assay", "format": "physicochemical", "details": "initial solutions 10 µg/mL", "procedure": "Antioxidant activity was measured using the DPPH^• radical scavenging assay according to Brand-Williams et al. (1995). Each 100 μL of post-culture fluids and initial DNR and DOX (10 μg/mL) solutions were mixed with 100 μL of […] DPPH^• solution in 96% ethanol. Following 30 min incubation at room temperature, sample absorbance was measured […]) using 96% ethanol as a blank sample."}, "V. fischeri": {"system": "V. fischeri", "test": "Ecotoxicity assay (Microtox)", "format": "cell-based, Vibrio fischeri", "details": "initial media 10 µg/mL or decolorized post-culture fluids"}, "BJ fibroblasts [2]": {"system": "BJ fibroblasts", "test": "Resazurin reduction assay", "format": "cell-based, human", "details": "BJ cells, medium with initial solution", "procedure": "The human skin fibroblasts cell line BJ (ATCC CRL-2522) was obtained from American Type Culture Collection (ATCC, distributors: LGC Standards, Łomianki, Poland). BJ cells were maintained in MEM medium without phenol red supplemented with 10% fetal bovine serum (FBS). Cells were maintained at 37 °C in a humidified atmosphere with 5% CO2. Cells were seeded in 96-well culture plates (Costar, St. Louis, MO, USA) at a density of 5 × 10^3 per well and initially cultured before the experiment for 24 h. […] The resazurin reduction cell viability and metabolism assay was performed according to a previously described method. On the day of analysis, a working solution of 60 µM resazurin was prepared in medium containing 1% FBS. […] Fluorescence was measured with an excitation wavelength of 530 nm and emission 590 nm on a FilterMax F5 Multi-Mode microplate reader (Molecular Devices, Corp., Sunnyvale, CA, USA) for 1 and 2 h after dye addition."}, "BJ fibroblasts [3]": {"system": "BJ fibroblasts", "test": "ROS production (H2DCFDA)", "format": "cell-based, human", "details": "BJ cells", "procedure": "The human skin fibroblasts cell line BJ (ATCC CRL-2522) was obtained from American Type Culture Collection (ATCC, distributors: LGC Standards, Łomianki, Poland). BJ cells were maintained in MEM medium without phenol red supplemented with 10% fetal bovine serum (FBS). Cells were maintained at 37 °C in a humidified atmosphere with 5% CO2. Cells were seeded in 96-well culture plates (Costar, St. Louis, MO, USA) at a density of 5 × 10^3 per well and initially cultured before the experiment for 24 h. […] The ROS measurement was performed according to a previously described method. […] The cells were incubated in H2DCFDA in serum-free and phenol red-free medium for 45 min before conditioned medium treatment. After 24 and 48 h of incubation of the cells with increasing concentrations of compounds (5% CO2 at 37 °C), the culture medium was replaced with fresh medium to remove extracellular residual DCF and studied compounds to reduce the fluorescence background. Cells treated with 0.3% hydrogen peroxide (H2O2) were used as a positive control (result not shown)."}, "[4]": {"system": "caspase-3 activity in BJ fibroblasts", "test": "Caspase-3 activity", "format": "cell-based, human", "details": "BJ cells; 24 h; medium with initial solutions", "procedure": "The human skin fibroblasts cell line BJ (ATCC CRL-2522) was obtained from American Type Culture Collection (ATCC, distributors: LGC Standards, Łomianki, Poland). BJ cells were maintained in MEM medium without phenol red supplemented with 10% fetal bovine serum (FBS). Cells were maintained at 37 °C in a humidified atmosphere with 5% CO2. Cells were seeded in 96-well culture plates (Costar, St. Louis, MO, USA) at a density of 5 × 10^3 per well and initially cultured before the experiment for 24 h. […] Caspase-3 activity was assessed according to previous described method Nicholson et al. After 24 or 48 h of treatment with studied media culture plates were frozen in −80 °C and kept until assay. […] The lysates were incubated with substrate Ac-DEVD-pNA for caspase-3 at 37 °C. Cells treated with 1 μM staurosporine were used as a positive control (results not shown). After 30 min, absorbance of the lysates at 405 nm was measured using a microplate reader (FilterMax F5 Multi-Mode microplate reader). The amount of colorimetric product was continuously monitored for 120 min. The data were analyzed using Multi-Mode Analysis software (Molecular Devices, Corp., Sunnyvale, CA, USA)."}, "BJ fibroblasts [5]": {"system": "BJ fibroblasts", "test": "Calcein AM staining", "format": "cell-based, human", "details": "BJ cells; 24 and 48 h; parent vs Control 1, metabolite vs parent", "procedure": "The human skin fibroblasts cell line BJ (ATCC CRL-2522) was obtained from American Type Culture Collection (ATCC, distributors: LGC Standards, Łomianki, Poland). BJ cells were maintained in MEM medium without phenol red supplemented with 10% fetal bovine serum (FBS). Cells were maintained at 37 °C in a humidified atmosphere with 5% CO2. Cells were seeded in 96-well culture plates (Costar, St. Louis, MO, USA) at a density of 5 × 10^3 per well and initially cultured before the experiment for 24 h."}, "bacteria": {"system": "bacteria", "test": "Genotoxicity assay (SOS ChromoTest)", "details": "before treatment"}, "[6]": {"set-up": "method as in PMID 17867890", "details": "SOS Chromotest, cited from earlier work"}}, "note": "Where two headings read alike, the source gives them in different places."}
{"compound": "COc1cccc2c1C(=O)c1c(O)c3c(c(O)c1C2=O)C[C@@](O)(C(C)=O)C[C@@H]3O[C@H]1C[C@H](N)[C@H](O)[C@H](C)O1", "note": "[DNR, daunomycin]", "values": [{"measurement": "decrease in the content of free radicals", "setting": "B. adusta CCBAS 930", "result": 90.30, "unit": "%"}, {"measurement": "antioxidant activity (DPPH scavenging)", "setting": "[1]", "result": "did not show any antioxidant activity"}, {"measurement": "toxicity units (TU)", "setting": "V. fischeri", "result": "1.79 ± 0.09"}, {"measurement": "decrease in resazurin reduction compared to Control 1", "setting": "BJ fibroblasts [2]; 24 h", "result": 48.49, "unit": "%"}, {"measurement": "decrease in resazurin reduction compared to Control 1", "setting": "BJ fibroblasts [2]; 48 h", "result": 48.40, "unit": "%"}, {"measurement": "ROS production induced compared to Control 1", "setting": "BJ fibroblasts [3]; 24 h", "result": 625.72, "unit": "%"}, {"measurement": "ROS production induced compared to Control 1", "setting": "BJ fibroblasts [3]; 48 h", "result": 372.97, "unit": "%"}, {"measurement": "caspase-3 activity", "setting": "[4]", "result": "not affected"}, {"measurement": "cell number (calcein AM staining)", "setting": "BJ fibroblasts [5]", "result": "decrease in cell number"}, {"measurement": "CIF (corrected induction factor)", "setting": "bacteria; C 0.15 µg mL^−1", "result": 2.50}, {"measurement": "CIF (corrected induction factor)", "setting": "bacteria; C 0.31 µg mL^−1", "result": 1.60}, {"measurement": "CIF (corrected induction factor)", "setting": "bacteria; C 0.62 µg mL^−1", "result": 1.21}, {"measurement": "CIF (corrected induction factor)", "setting": "bacteria; C 1.25 µg mL^−1", "result": 1.54}, {"measurement": "CIF (corrected induction factor)", "setting": "bacteria; C 2.50 µg mL^−1", "result": 2.80}, {"measurement": "CIF (corrected induction factor)", "setting": "bacteria; C 5 µg mL^−1", "result": 5.68}, {"measurement": "CIF (corrected induction factor)", "setting": "bacteria; C 10 µg mL^−1", "result": 13.42}]}
{"compound": "COc1cccc2c1C(=O)c1c(O)c3c(c(O)c1C2=O)C[C@@](O)(C(=O)CO)C[C@@H]3O[C@H]1C[C@H](N)[C@H](O)[C@H](C)O1", "note": "[DOX, doxorubicin]", "values": [{"measurement": "decrease in the content of free radicals", "setting": "B. adusta CCBAS 930", "result": 90.70, "unit": "%"}, {"measurement": "antioxidant activity (DPPH scavenging)", "setting": "[1]", "result": "did not show any antioxidant activity"}, {"measurement": "toxicity units (TU)", "setting": "V. fischeri", "result": "1.90 ± 0.13"}, {"measurement": "decrease in resazurin reduction compared to Control 1", "setting": "BJ fibroblasts [2]; 24 h", "result": 50.36, "unit": "%"}, {"measurement": "decrease in resazurin reduction compared to Control 1", "setting": "BJ fibroblasts [2]; 48 h", "result": 40.36, "unit": "%"}, {"measurement": "ROS production induced compared to Control 1", "setting": "BJ fibroblasts [3]; 24 h", "result": 680.22, "unit": "%"}, {"measurement": "ROS production induced compared to Control 1", "setting": "BJ fibroblasts [3]; 48 h", "result": 457.34, "unit": "%"}, {"measurement": "caspase-3 activity", "setting": "[4]", "result": "not affected"}, {"measurement": "cell number (calcein AM staining)", "setting": "BJ fibroblasts [5]", "result": "decrease in cell number"}, {"measurement": "concentration exhibiting genotoxic properties", "setting": "[6]; with metabolic activation", "result": 98, "unit": "ng/mL"}, {"measurement": "concentration exhibiting genotoxic properties", "setting": "[6]; without metabolic activation", "result": 74, "unit": "ng/mL"}, {"measurement": "CIF (corrected induction factor)", "setting": "bacteria; C 0.15 µg mL^−1", "result": 2.88}, {"measurement": "CIF (corrected induction factor)", "setting": "bacteria; C 0.31 µg mL^−1", "result": 1.21}, {"measurement": "CIF (corrected induction factor)", "setting": "bacteria; C 0.62 µg mL^−1", "result": 1.23}, {"measurement": "CIF (corrected induction factor)", "setting": "bacteria; C 1.25 µg mL^−1", "result": 2.53}, {"measurement": "CIF (corrected induction factor)", "setting": "bacteria; C 2.50 µg mL^−1", "result": 3.27}, {"measurement": "CIF (corrected induction factor)", "setting": "bacteria; C 5 µg mL^−1", "result": 3.70}, {"measurement": "CIF (corrected induction factor)", "setting": "bacteria; C 10 µg mL^−1", "result": 9.58}]}
